Source: patent US8507459B2, “Use of adenosine aspartate for the preparation of pharmaceutical products for the treatment of liver cancer” (Universidad Nacional Autonnoma de Mexico, priority 2007, dated 2013)

Assays:
[1] = test system: preneoplastic lesions in rat liver; assay: Resistant hepatocyte model, adenosine aspartate given after cancer induction, sacrifice at month 12 (Example 1); assay type: in vivo
Protocol: (§1) For the experimental phase in its first stage, male rats of the Fisher 344 strain were used, having 180 to 200 grams body weight, which were bred and kept in an Animal Breeding and Experimentation Unit of the Advanced Research and Studies Center, in a controlled environment with 12-hour cycles of light/darkness at a temperature of 23° C., in hygiene conditions and with free access to food and water. The preneoplastic lesion outgrowth in the liver was induced to the rats by using the resistant hepatocyte model (Semple-Roberts E, Hayes M A, Armstrong D, Becker R A, Racz W J, and Farber E. (1987) Alternative methods of selecting rat hepatocellular nodules resistant to 2-acetylaminofluorence. Int, J. Cancer. 40:643-6451) modified by our research group (Carrasc-Legleu C E, Marquez-Rosado L, Fattel-Fazenda S, Arce-PopocaE, Pérez-Carreón JI, VIIIa-Treviño S. (2004) Chemoprotective effect of caffeic acid phenethyl ester on promotion in a medium-term rat hepatocarcinogenesis assay. Int J. Cancer. 108:488-92).
As can be observed in this figure, this second experiment (IFC) consisted first in administering by intraperitoneal route, one single dose of 200 mg/kg of weight of DEN as carcinogen primer. Additionally, on days 7, 8, and 9 after the beginning, a dose of 20 mg/kg of weight of 2AAF was administered as carcinogen promoter, and on day 10 after the beginning, rats underwent an HP. […]

[2] = test system: preneoplastic lesions in rat liver; assay: Resistant hepatocyte model, 25 days, histochemical GGT staining of liver sections (Example 2); assay type: in vivo
Protocol: as §1
On days 7, 8, and 9 after the beginning, a dose of 20 mg/kg of weight of 2-acetylaminofluorene (hereinafter called as 2AAF) was administered as carcinogen promoter, and on day 10 after the beginning, rats underwent a partial hepatectomy (HP) of 70% of hepatic mass (the administration of these products along with the hepatectomy is taken into consideration as the entire treatment for this experiment). Lastly, the rats were sacrificed at day 25.
In order to show the beneficial effect of adenosine aspartate in preneoplastic lesions, 6 different experimental groups were designed, as shown in FIG. 2.
The first group (TC), having 8 rats, was administered with the entire treatment; this group was used as positive control of the preneoplastic lesion outgrowth. The second group (IFC-1), having 8 animals, was administered with a pharmacologically effective dose of adenosine aspartate, which for this case, was 50 mg/kg of body weight dissolved in a physiological saline solution, pH 7.4 with 0.5% carboxymethyl-cellulose, replacing DEN carcinogen primer. The third group (IFC-P), having 8 animals, was administered with a pharmacologically effective dose of adenosine aspartate, which for this case, was 50 mg/kg of body weight dissolved in a physiological saline solution, pH 7.4 with 0.5% carboxymethyl-cellulose, replacing 2-AAF carcinogen promoter. In the fourth group (IFC-IP), with 7 animals, both the DEN carcinogen primer and the 2AAF carcinogen promoter were substituted by adenosine aspartate in pharmacologically effective doses, which in this case, was 50 mg/kg of body weight dissolved in a physiological saline solution, pH 7.4 with 0.5% carboxymethyl-cellulose. The fifth group (C-2AAF), having 6 animals, was administered with 2AAF only, being used as control of the administration of adenosine aspartate at the beginning of the second group (IFC-I. Finally, the sixth group(C-DEN), having 7 animals, which received DEN product only, was used as control of the administration of adenosine aspartate in the promotion of group 3 (IFC-P).
When ending the cycle, all groups underwent a partial hepatectomy. […] 17(8):517-526.) Briefly, sections were set in absolute ethanol for 10 min at −20° C.; subsequently, they were treated with a solution that contains 125 μg/ml of γ-glutamil-4-methoxi-2-naphthylamide (GMNA), 0.5 mg/ml of glycyl-glycine and 0.5 mg/ml of Fast Blue in 100 mM of Tris base and they were incubated for 30 minutes at room temperature; finally, they were washed with saline solution, the precipitated were set with 100 mM cupric sulfate solution. All reagents acquired from Sigma Chemical Co. in St Louis, Mo., USA. The enzyme activity was expressed in areas stained with dark red color. […]

alpha-fetoprotein = details: cirrhotic patients with slightly high levels; cited from earlier work
cirrhosis of the liver = details: cited from earlier work
[3] = group IFC-I: adenosine aspartate 50 mg/kg as primer replacing DEN, day 25
[4] = group IFC-IP: adenosine aspartate 50 mg/kg as primer and promoter replacing DEN and 2AAF, day 25
[5] = group IFC-P: adenosine aspartate 50 mg/kg as promoter replacing 2AAF, day 25

For adenosine aspartate, the “effect on already installed preneoplastic lesions” value ([1]; 60 mg/kg every 3 days from month 8 until month 12) was “reversal effect”, the “alterations of cancer or preneoplastic lesions” value ([1]; administered after a product used to induce cancer, 60 mg/kg every 3 days from month 8) was “no suggestive alterations of cancer or preneoplastic lesions were present” and the “effect over the preneoplastic lesion outgrowth compared with respective control groups” value ([2]; as primer (IFC-I) or as promoter (IFC-P), vs C-2AAF and C-DEN) was “no effect”. The “average of positive GGT foci/cm^2 regarding the control group with the entire treatment (TC = 100%)” value [2, 3] was 1.3%, the “positive GGT area regarding the control group with the entire treatment (TC = 100%)” value [2, 3] was 0.4% and the “positive GGT arborescences in liver” value ([2]; group IFC-I: as primer) was “some livers presented positive GGT arborescences”. The “number of positive GGT foci/cm^2 regarding the control group with the entire treatment (TC = 100%)” value [2, 4] was 0.2%, the “positive GGT area regarding the control group with the entire treatment (TC = 100%)” value [2, 4] was 0.08% and the “development of preneoplastic lesions” value ([2]; group IFC-IP: as primer and as promoter) was “no preneoplastic lesions were developed”. The “average of positive GGT foci/cm^2 regarding the control group with the entire treatment (TC = 100%)” value [2, 5] was 7.1%, the “positive GGT area regarding the control group with the entire treatment (TC = 100%)” value [2, 5] was 4.6% and the “positive GGT arborescences and preneoplastic lesions in liver” value ([2]; group IFC-P: as promoter) was “positive GGT arborescences were not observed but small preneoplastic lesions were observed”. For the same substance, the “alterations (number and area) compared with control groups C-2AAF and C-DEN” value ([2]; groups IFC-I and IFC-P) was “lower in number as well as in area”, the “serum levels of alpha-fetoprotein” value (alpha-fetoprotein) was “reduces serum levels of alpha-fetoprotein” and the accumulation of collagen (cirrhosis of the liver) was “reducing the accumulation of collagen”.
